Experimental data taken from US10961199B2 (3B Pharmaceuticals GmbH, priority 2012, dated 2021).
Blank lines part the entries; values can stand above or below the compound they belong to.

Tests used:
NTR1 [1] = molecular target: T1, NTR1 (Homo sapiens, UniProt P30989); test: Functional Ca2+ mobilisation assay (antagonist assay); type: cell-based; design: HA-tagged puromycin N-acetyltransferase-ubiquitin fusion (pExoIN2 system; HEK293 lines only) (N); host or cells: HT29 (endogenous receptor) or HEK293 stably transfected with NTR1; details: HT29 or NTR1-expressing HEK293 cells, EC80-concentration of agonist
T1 sequence (P30989 whole entry, the tested form may be a part): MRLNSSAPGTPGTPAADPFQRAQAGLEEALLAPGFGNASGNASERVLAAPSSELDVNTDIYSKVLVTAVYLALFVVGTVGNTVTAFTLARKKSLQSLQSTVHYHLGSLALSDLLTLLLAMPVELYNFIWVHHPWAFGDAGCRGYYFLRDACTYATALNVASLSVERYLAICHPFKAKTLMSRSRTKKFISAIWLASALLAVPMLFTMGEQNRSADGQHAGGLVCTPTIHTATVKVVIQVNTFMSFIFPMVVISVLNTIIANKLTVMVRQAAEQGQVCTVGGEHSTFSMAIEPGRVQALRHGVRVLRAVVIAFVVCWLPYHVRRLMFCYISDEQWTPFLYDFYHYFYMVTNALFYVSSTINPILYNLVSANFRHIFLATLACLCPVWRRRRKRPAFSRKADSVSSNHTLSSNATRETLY
Text: Functional Ca^2+ Mobilisation Assay
Ca^2+ ions are usually kept at nanomolar levels in the cytosol of cells, and act in a number of signal transduction pathways as second messengers. […] Changes in calcium ion concentration in standard assay protocols can be readily detected with fluorescent dyes that emit light when changes in intracellular Ca^2+ ion concentration occur. Given the transient nature of these responses, they are often read with instrumentation that has ‘inject and read’ capability.
HT29 or NTR1-expressing HEK293 cells were trypsinized and seeded into black flat clear-bottom 96-well plates (Corning, Amsterdam, The Netherlands) at 6×10^5 cells per well. […] For agonist assays, serial dilutions of agonistic substances were added to the cells loaded with dye and the change of the fluorescent signal was recorded continually for approx. 90 s using a FlexStation II (Molecular Devices, Biberach, Germany). […] For antagonist assays, cells loaded with 100 μl of Ca5-dye were pre-incubated with serial dilutions of antagonistic substances for 30 min, before the EC80-concentration of agonist was added to the cells and the change of the fluorescent signal was recorded continually for approx. 90 s. […]

NTR1 [2] = molecular target: T1, NTR1; test: NTR1 radioligand binding assay (RLB, Cerep); design: host or cells: CHO cells (receptor preparation); details: CHO cells recombinantly expressing the human receptor; 0.05 nM 125I-(Tyr3-neurotensin); 60 min at 4° C.
Method: Radioligand Binding Assay
In order to determine the binding affinity of compounds comprising a radiolabel for NTR1, a radioligand binding assay was carried out. A radioligand is a radioactive biochemical substance that is used for diagnosis or for research-oriented study of cellular receptor systems of the body. In […] systems it is often used to quantify the binding of a test molecule to the binding site of radioligand. The higher the affinity of the molecule, the more radioligand is displaced from the binding site. The amount of bound radioligand can be measured by scintillation counting and thereby quantified. This assay is commonly used to calculate binding constants of molecules to receptors.
The NTR1 radioligand binding assay was performed by Cerep (Celle l'Evescault, France; Catalog reference 0109) according to Vita et al., FEBS Lett., 1993, 317, 139-142. NTR1 was prepared from CHO cells recombinantly expressing the human receptor and incubated with 0.05 nM ^125I-(Tyr^3-neurotensin) and serial dilutions of the test compounds. […] The result for each test compound is expressed as IC50 concentration and provides a measure for the affinity of the test compound for NTR1.

CCK1 (CCKA) (h) = molecular target: T2, CCK1 (CCKA) (h) (Homo sapiens, UniProt P32238); test: ExpresSProfile CCK1 (CCKA) (h) agonist radioligand; type: binding; details: Reference Compound
T2 construct: Cerep P1
T2 sequence (P32238 1-428): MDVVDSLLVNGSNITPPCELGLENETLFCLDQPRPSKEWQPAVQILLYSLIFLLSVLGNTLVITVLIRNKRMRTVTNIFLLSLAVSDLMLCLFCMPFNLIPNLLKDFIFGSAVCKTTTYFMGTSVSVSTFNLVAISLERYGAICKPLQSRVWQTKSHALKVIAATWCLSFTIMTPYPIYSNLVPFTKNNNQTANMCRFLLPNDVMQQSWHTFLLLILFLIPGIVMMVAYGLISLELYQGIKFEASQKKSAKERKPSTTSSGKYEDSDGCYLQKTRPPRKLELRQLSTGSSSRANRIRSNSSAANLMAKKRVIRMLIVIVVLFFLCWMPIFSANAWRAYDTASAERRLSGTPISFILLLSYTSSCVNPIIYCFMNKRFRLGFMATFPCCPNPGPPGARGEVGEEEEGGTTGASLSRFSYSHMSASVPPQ

delta 2 (DOP) (h) = molecular target: T3, delta 2 (DOP) (h) (Homo sapiens, UniProt P41143); test: ExpresSProfile delta 2 (DOP) (h) agonist radioligand; type: binding; details: Reference Compound
T3 construct: Cerep (contract assay) P1
T3 sequence (P41143 whole entry): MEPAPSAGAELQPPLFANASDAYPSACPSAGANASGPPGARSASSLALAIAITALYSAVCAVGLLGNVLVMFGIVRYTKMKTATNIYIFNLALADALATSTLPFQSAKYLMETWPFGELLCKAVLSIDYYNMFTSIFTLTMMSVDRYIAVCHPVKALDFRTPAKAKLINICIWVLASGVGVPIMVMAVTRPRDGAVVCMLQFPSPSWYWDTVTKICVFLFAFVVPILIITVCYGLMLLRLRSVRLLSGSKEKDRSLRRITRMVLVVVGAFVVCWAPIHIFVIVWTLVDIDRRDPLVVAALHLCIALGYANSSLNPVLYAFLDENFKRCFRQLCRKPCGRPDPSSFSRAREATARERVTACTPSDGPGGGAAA

CXCR2 (IL-8B) (h) = molecular target: T4, CXCR2 (IL-8B) (h) (Homo sapiens, UniProt P25025); test: ExpresSProfile CXCR2 (IL-8B) (h) agonist radioligand; type: binding; details: Reference Compound
T4 construct: Cerep P1
T4 sequence (P25025 1-360): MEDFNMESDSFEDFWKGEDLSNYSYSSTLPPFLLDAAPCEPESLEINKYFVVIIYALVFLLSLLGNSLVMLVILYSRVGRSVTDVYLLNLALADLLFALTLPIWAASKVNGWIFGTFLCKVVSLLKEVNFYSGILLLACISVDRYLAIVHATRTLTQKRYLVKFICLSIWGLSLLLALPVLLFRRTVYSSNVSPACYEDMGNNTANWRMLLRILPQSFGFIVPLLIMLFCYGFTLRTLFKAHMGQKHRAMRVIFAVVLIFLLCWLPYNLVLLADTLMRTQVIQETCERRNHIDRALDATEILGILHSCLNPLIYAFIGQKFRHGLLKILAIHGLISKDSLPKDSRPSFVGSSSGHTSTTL

CCR1 (h) = molecular target: T5, CCR1 (h) (Homo sapiens, UniProt P32246); test: ExpresSProfile CCR1 (h) agonist radioligand; type: binding; details: Reference Compound; read-out: Ki Ref
T5 construct: Cerep P1
T5 sequence (P32246 1-355): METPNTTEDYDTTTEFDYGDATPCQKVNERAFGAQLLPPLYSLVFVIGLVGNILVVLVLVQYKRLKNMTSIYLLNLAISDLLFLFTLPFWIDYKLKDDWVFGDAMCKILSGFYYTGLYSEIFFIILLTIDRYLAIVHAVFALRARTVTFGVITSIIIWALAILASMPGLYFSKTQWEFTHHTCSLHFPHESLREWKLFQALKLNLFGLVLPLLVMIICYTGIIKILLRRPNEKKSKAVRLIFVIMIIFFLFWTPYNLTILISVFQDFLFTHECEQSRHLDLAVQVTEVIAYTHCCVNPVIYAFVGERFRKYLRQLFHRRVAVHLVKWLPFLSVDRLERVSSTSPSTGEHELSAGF

B2 (h) = molecular target: T6, B2 (h) (Homo sapiens, UniProt P30411); test: ExpresSProfile B2 (h) agonist radioligand; type: binding
T6 construct: Cerep P1
T6 sequence (P30411 1-391): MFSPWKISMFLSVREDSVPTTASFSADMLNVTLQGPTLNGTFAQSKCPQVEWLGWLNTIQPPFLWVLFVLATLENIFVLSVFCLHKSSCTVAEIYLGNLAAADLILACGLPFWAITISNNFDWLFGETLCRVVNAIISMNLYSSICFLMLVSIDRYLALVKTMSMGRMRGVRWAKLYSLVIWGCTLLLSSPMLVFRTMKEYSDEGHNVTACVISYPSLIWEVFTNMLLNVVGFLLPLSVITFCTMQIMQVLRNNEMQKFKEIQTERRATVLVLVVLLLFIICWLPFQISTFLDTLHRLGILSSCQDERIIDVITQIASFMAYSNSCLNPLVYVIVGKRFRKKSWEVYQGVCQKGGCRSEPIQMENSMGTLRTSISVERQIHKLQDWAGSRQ

KV channel = test: ExpresSProfile KV channel antagonist radioligand; type: binding; details: Reference Compound; read-out: Ki Ref

Compound: CCK-8s
nH Ref (CCK1 (CCKA) (h)): 0.6

Compound: DPDPE
nH Ref (delta 2 (DOP) (h)): 0.9

Compound: NPC 567
nH Ref (B2 (h)): 0.9

Compound: alpha-dendrotoxin
Ki (KV channel): 0.2 nM

Next, values leading:

IC50 [nM] Ca (NTR1 [1]): single digit nanomolar | IC50 [nM] RLB (NTR1 [2]): single digit nanomolar
Compound: CNCCCN(C)CCCN(C)C(=O)c1ccc(-n2nc(C(=O)NC3(C(=O)O)C4CC5CC(C4)CC3C5)cc2-c2c(OC)cccc2OC)c(C(C)C)c1 (stereo not drawn) [(III), 2-({5-(2,6-Dimethoxy-phenyl)-1-[2-isopropyl-4-(methyl-{3-[methyl-(3-methylamino-propyl)-amino]-propyl}-carbamoyl)-phenyl]-1H-pyrazole-3-carbonyl}-amino)-adamantane-2-carboxylic acid]

IC50 (NTR1 [2]): 2 nM
Compound: COc1cccc(OC)c1-c1cc(C(=O)NC2(C(=O)O)C3CC4CC(C3)CC2C4)nn1-c1ccc(C(=O)N(C)CCCN(C)CCCN(C)C(=O)c2ccc(F)cc2)cc1C(C)C (stereo not drawn) [(IIIg), 2-{[5-(2,6-Dimethoxy-phenyl)-1-(4-{[3-({3-[(4-fluoro-benzoyl)-methyl-amino]-propyl}-methyl-amino)-propyl]-methyl-carbamoyl}-2-isopropyl-phenyl)-1H-pyrazole-3-carbonyl]-amino}-adamantane-2-carboxylic acid]

IC50 [nM] Ca (NTR1 [1]): single digit nanomolar | IC50 [nM] RLB (NTR1 [2]): single digit nanomolar
Compound: COc1cccc(OC)c1-c1cc(C(=O)NC2(C(=O)O)C3CC4CC(C3)CC2C4)nn1-c1ccc(C(=O)N(CCCN)CCCN(C)C)cc1C(C)C (stereo not drawn) [(V), 2-{[1-{4-[(3-Amino-propyl)-(3-dimethylamino-propyl)-carbamoyl]-2-isopropyl-phenyl}-5-(2,6-dimethoxy-phenyl)-1H-pyrazole-3-carbonyl]-amino}-adamantane-2-carboxylic acid]

nH Ref (CXCR2 (IL-8B) (h)): 1.4 | Ki (CXCR2 (IL-8B) (h); read-out: Ki Ref): 0.056 nM
Compound: IL-8: reference compound, CXCR2 (IL-8B) (h) assay

Ki (CCR1 (h)): 0.041 nM
Compound: MIP-1alpha: reference compound, CCR1 (h) assay
